# Laboratory results: ChEMBL document CHEMBL1201862, “PubChem BioAssay data set” (2004)
#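 Tested at 5 concentrations; 48 h exposure; 96-well plates; endpoints linearly interpolated, else capped at highest concentration. The concentration for 50% growth inhibition is given as GI50.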 Activity calls are given as the source filed them. Rule as the data show it: active = GI50 up to about 1.1 µM and inactive = higher.
# Tests used:
# Experiment in all cases: NCI tumour cell line growth inhibition, 48 h
# A549 = tested on: A549
# HCC 2998 = tested on: HCC 2998
# HCT-116 = tested on: HCT-116
# HOP-62 = tested on: HOP-62
# HOP-92 = tested on: HOP-92
# HT-29 = tested on: HT-29
# IGROV-1 = tested on: IGROV-1
# K562 = tested on: K562
# M14 = tested on: M14
# Malme-3M = tested on: Malme-3M
# NCI-H23 = tested on: NCI-H23
# NCI/ADR-RES = tested on: NCI/ADR-RES
# OVCAR-8 = tested on: OVCAR-8
# RPMI-8226 = tested on: RPMI-8226
# SK-MEL-2 = tested on: SK-MEL-2
# SNB-19 = tested on: SNB-19
# SW-620 = tested on: SW-620
# U-251 = tested on: U-251
# NCI-H226 = tested on: NCI-H226
SMILES,GI50 (A549),GI50 (HCC 2998),GI50 (HCT-116),GI50 (HOP-62),GI50 (HOP-92),GI50 (HT-29),GI50 (IGROV-1),GI50 (K562),GI50 (M14),GI50 (Malme-3M),GI50 (NCI-H23),GI50 (NCI/ADR-RES),GI50 (OVCAR-8),GI50 (RPMI-8226),GI50 (SK-MEL-2),GI50 (SNB-19),GI50 (SW-620),GI50 (U-251),GI50 (NCI-H226)
Nc1ncn(C/C=C/c2ccccc2)c2ncnc1-2,> 100 µM (inactive),> 100 µM (inactive),> 100 µM (inactive),> 100 µM (inactive),> 100 µM (inactive),50.9 µM (inactive),> 100 µM (inactive),8.93 µM (inactive),> 100 µM (inactive),> 100 µM (inactive),> 100 µM (inactive),> 100 µM (inactive),> 100 µM (inactive),> 100 µM (inactive),> 100 µM (inactive),> 100 µM (inactive),> 100 µM (inactive),> 100 µM (inactive),
c1ccc([B-]2(c3ccccc3)OCCc3cccc[n+]32)cc1,84.9 µM (inactive),,35 µM (inactive),> 100 µM (inactive),28.2 µM (inactive),87.1 µM (inactive),66.1 µM (inactive),> 100 µM (inactive),36.2 µM (inactive),42.4 µM (inactive),48.8 µM (inactive),59 µM (inactive),75 µM (inactive),65.3 µM (inactive),75.9 µM (inactive),> 100 µM (inactive),51.9 µM (inactive),> 100 µM (inactive),50.1 µM (inactive)
O=P(O)(O)c1ccccc1Oc1ccccc1,> 100 µM (inactive),> 100 µM (inactive),> 100 µM (inactive),> 100 µM (inactive),> 100 µM (inactive),,> 100 µM (inactive),> 100 µM (inactive),> 100 µM (inactive),,> 100 µM (inactive),> 100 µM (inactive),> 100 µM (inactive),> 100 µM (inactive),> 100 µM (inactive),> 100 µM (inactive),> 100 µM (inactive),> 100 µM (inactive),> 100 µM (inactive)
COC(=O)C1=C(C)NC(=S)NC1c1ccc(N(CCCl)CCCl)cc1Cl (stereo not drawn),8.2 µM (inactive),,34 µM (inactive),73.6 µM (inactive),74.8 µM (inactive),32.5 µM (inactive),29.4 µM (inactive),8.99 µM (inactive),32.5 µM (inactive),3.04 µM (inactive),5.45 µM (inactive),37 µM (inactive),31 µM (inactive),1.33 µM (inactive),24.2 µM (inactive),49 µM (inactive),33 µM (inactive),53.6 µM (inactive),3.56 µM (inactive)
C[N+](C)([O-])CCC=C1c2ccccc2CCc2ccccc21,28.1 µM (inactive),,29.6 µM (inactive),15.6 µM (inactive),25.5 µM (inactive),22.3 µM (inactive),17.1 µM (inactive),19.2 µM (inactive),31 µM (inactive),18.5 µM (inactive),34.1 µM (inactive),22 µM (inactive),23.4 µM (inactive),11.5 µM (inactive),18.5 µM (inactive),35.6 µM (inactive),21.8 µM (inactive),18.2 µM (inactive),31.4 µM (inactive)
CC1CNC(c2cccc(OCc3ccc(COc4cccc(C5=NC(C)CN5)c4)cc3)c2)=N1 (stereo not drawn),40.6 µM (inactive),24 µM (inactive),23.6 µM (inactive),40.6 µM (inactive),> 100 µM (inactive),25.4 µM (inactive),> 100 µM (inactive),5.7 µM (inactive),> 100 µM (inactive),58.5 µM (inactive),43.7 µM (inactive),> 100 µM (inactive),56.8 µM (inactive),15.6 µM (inactive),20.8 µM (inactive),68.1 µM (inactive),42.6 µM (inactive),35.6 µM (inactive),
O=S(=O)(/N=c1\[nH]c(-c2cc(O)c(O)c(O)c2)cs1)c1ccc(Cl)cc1Cl,31.9 µM (inactive),,19 µM (inactive),17.9 µM (inactive),41.2 µM (inactive),22.8 µM (inactive),20.8 µM (inactive),18.6 µM (inactive),22.1 µM (inactive),21.8 µM (inactive),26.5 µM (inactive),26.4 µM (inactive),0.034 µM (active),19.4 µM (inactive),43.8 µM (inactive),31 µM (inactive),18.5 µM (inactive),19 µM (inactive),50.4 µM (inactive)
Cc1nc2ccccc2c(=O)n1NC(=S)Nc1ccc(Cl)cc1[N+](=O)[O-],> 100 µM (inactive),,> 100 µM (inactive),> 100 µM (inactive),> 100 µM (inactive),> 100 µM (inactive),> 100 µM (inactive),> 100 µM (inactive),> 100 µM (inactive),> 100 µM (inactive),> 100 µM (inactive),> 100 µM (inactive),> 100 µM (inactive),> 100 µM (inactive),> 100 µM (inactive),> 72.8 µM (inactive),> 100 µM (inactive),> 100 µM (inactive),> 10 µM (inactive)
